In patent publication US10188634B2, “3-(3H-imidazo[4,5-C]pyridin-2-yl)-1 H-pyrazolo[4,3-B]pyridines and therapeutic uses thereof” (Samumed, LLC, priority 2015, dated 2019):

How the values were obtained:
Format in all cases: cell-based
[1] = tested on: Wnt activity (Sp5-Luc reporter, human Sp5 promoter with eight TCF/LEF binding sites) in SW480 colon carcinoma cells; experiment: Screening assay for Wnt activity: Sp5-Luc reporter gene assay in SW480 cells; conditions: 10-point dose-response starting from 10 μM, overnight incubation
Text: The screening assay for Wnt activity is described as follows. Reporter cell lines can be generated by stably transducing cancer cell lines (e.g., colon cancer) or primary cells (e.g., IEC-6 intestinal cells) with a lentiviral construct that includes a Wnt-responsive promoter driving expression of the firefly luciferase gene.
SW480 colon carcinoma cells were transduced with a lentiviral vector expressing luciferase with a human Sp5 promoter consisting of a sequence of eight TCF/LEF binding sites. SW480 cells stably expressing the Sp5-Luc reporter gene and a hygromycin resistance gene were selected by treatment with 150 μg/mL of hygromycin for 7 days. These stably transduced SW480 cells were expanded in cell culture and used for all further screening activities. Each compound was dissolved in DMSO as a 10 mM stock and used to prepare compound source plates. Serial dilution (1:3, 10-point dose-response curves starting from 10 μM) and compound transfer was performed using the ECHO 550 (Labcyte, Sunnyvale, Calif.) into 384-well white solid bottom assay plates (Greiner Bio-One) with appropriate DMSO backfill for a final DMSO concentration of 0.1%. For Sp5-Luc reporter gene assays, the cells were plated at 4,000 cells/well in 384-well plates with medium containing 1% fetal bovine serum and incubated overnight at 37° C. and 5% CO2. Following incubation, 20 μl of BrightGlo luminescence reagent (Promega) was added to each well of the 384-well assay plates. The plates were placed on an orbital shaker for 2 min and then luminescence was quantified using the Envision (Perkin Elmer) plate reader. Readings were normalized to DMSO only treated cells, and normalized activities were utilized for EC50 calculations using the dose-response log (inhibitor) vs. response -variable slope (four parameters) nonlinear regression feature available in GraphPad Prism 5.0 (or Dotmatics). For EC50 of >10 μM, the percent inhibition at 10 μM is provided.

[2] = tested on: SW480 colon cancer cells; experiment: Cell viability assay (CellTiter-Blue) in SW480 colon cancer cells; conditions: Homo sapiens, 96 h; for EC50: four days incubation, CellTiter-Blue cell viability; for inhibition at 10 µM: four days, CellTiter-Blue, read-out: percent inhibition at 10 μM (given for EC50 of >10 μM)
Method: Representative compounds were screened using the following assay procedure to assess the effect on cell viability as described below.
Each compound was dissolved in DMSO as a 10 mM stock and used to prepare compound source plates. Serial dilution (1:3, 8-point dose-response curves from 10 μM to 0.004 μM) and compound transfer was performed using the ECHO 550 (Labcyte, Sunnyvale, Calif.) into 96-well clear bottom, black-walled plates (Corning-Costar).
Approximately 2×10^3 SW480 colon cancer cells were seeded into each well and allowed to incubate in the presence or absence of compound for four days at 37° C./5% CO2. Eight replicates of DMSO-treated cells served as controls and cells treated with compound were performed in duplicate.
After incubation, 20 μL of CellTiter-Blue (Promega) was added to each well allowed to incubate for approximately 3 hours. This reagent was a buffered solution which contains resazurin, metabolically active cells were able to reduce rezarurin (blue) into resorufin (pink) which was highly fluorescent. This measured fluorescence was used as a readout for cell viability.
After incubation, the plates were read at Ex 560 nm Em 590 nm (Cytation 3, BioTek). Dose-response curves were generated and EC50 concentration values were calculated using non-linear regression curve fit in the GraphPad Prism (San Diego, Calif.) or Dotmatics' Studies Software (Bishops Stortford, UK). For EC50 of >10 μM, the percent inhibition at 10 μM is provided.

[3] = tested on: LL29 cells (primary human fibroblasts derived from IPF patients) treated with TGF-β1, α-smooth muscle actin; experiment: Inhibition of the fibrotic process: αSMA staining in TGF-β1 treated primary human fibroblasts from IPF patients (LL29 cells); conditions: Fibroblast, 96 h; for EC50: LL29 cells treated with TGF-β1 (20 ng/mL), 4 days
Text: Representative compounds were screened using primary human fibroblasts (derived from IPF patients) treated with TGF-β1 to determine their ability to inhibit the fibrotic process.
Human Fibroblast Cell Culture: Primary human fibroblasts derived from IPF patients (LL29 cells) [^1Xiaoqiu Liu, et.al., “Fibrotic Lung Fibroblasts Show Blunted Inhibition by cAMP Due to Deficient cAMP Response Element-Binding Protein Phosphorylation”, Journal of Pharmacology and Experimental Therapeutics (2005), 315(2), 678-687; ^2Watts, K. L., et.al., “RhoA signaling modulates cyclin D1 expression in human lung fibroblasts; implications for idiopathic pulmonary fibrosis”, Respiratory Research (2006), 7(1), 88] were obtained from American Type Culture Collection (ATCC) and expanded in F12 medium supplemented with 15% Fetal Bovine Serum and Penicillin/Streptomycin.
Compound Screening: Each compound was dissolved in DMSO as a 10 mM stock and used to prepare compound source plates. […] LL29 cells are plated at 1,500 cells/well in 80 μL/well F12 medium supplemented with 1% Fetal Bovine Serum. One hour after addition of the cells, TGF-β1 (Peprotech; 20 ng/mL) was added to the plates to induce fibrosis (ref. 1 and 2 above). Wells treated with TGF-β1 and containing DMSO were used as controls. Cells were incubated at 37° C. and 5% CO2 for 4 days. Following incubation for 4 days, SYTOX green nucleic acid stain (Life Technologies [Thermo Fisher Scientific]) was added to the wells at a final concentration of 1 μM and incubated at room temperature for 30 min. Cells were then fixed using 4% formaldehyde (Electron Microscopy Sciences), washed 3 times with PBS followed by blocking and permeabilization using 3% Bovine Serum Albumin (BSA; Sigma) and 0.3% Triton X-100 (Sigma) in PBS. Cells were then stained with antibody specific to α-smooth muscle actin (αSMA; Abcam) (ref. 1 and 2 above) in 3% Bovine Serum Albumin (BSA; Sigma) and 0.3% Triton X-100 (Sigma) in PBS, and incubated overnight at 4° C. Cells were then washed 3 times with PBS, followed by incubation with Alexa Flor-647 conjugated secondary antibody (Life Technologies [Thermo Fisher Scientific]) and DAPI at room temperature for 1 hour. Cells were then washed 3 times with PBS and plates were sealed for imaging. αSMA staining was imaged by excitation at 630 nm and emission at 665 nm and quantified using the Compartmental Analysis program on the CellInsight CX5 (Thermo Scientific). Dead or apoptotic cells were excluded from analysis based on positive SYTOX green staining. % of total cells positive for αSMA were counted in each well and normalized to the average of 11 wells treated with TGF-β1 on the same plate using Dotmatics' Studies Software. The normalized averages (fold change over untreated) of 3 replicate wells for each compound concentration were used to create dose-responses curves and EC50 values were calculated using non-linear regression curve fit in the Dotmatics' Studies Software. For EC50 of >10 μM, the percent inhibition at 10 μM is provided.

[4] = tested on: IL-6 in THP-1 cells; experiment: Inhibition of IL-6 in LPS-stimulated THP-1 human monocyte cells (HTRF); conditions: 500 ng/mL LPS, 22 hours, IL-6 HTRF
Method: Human Monocyte Cell Culture: Human monocyte cell line (THP-1 cells; Catalog # TIB-202, ATCC, Manassas, Va.) were cultured in Roswell Park Memorial Institute (RPMI) 1640 Medium (Catalog #21870-100, Buffalo, N.Y.) with 1% L-glutamine, 1% HEPES, 1% Sodium Pyruvate, 2% Sodium Bicarbonate supplemented with 100 units/mL penicillin, 50 μg/mL streptomycin, 2-mercaptoethanol (0.05 mM) [basal medium] and 10% fetal bovine serum (Catalog #16140089, Life Technologies, Carlsbad, Calif.) at 37° C. and 5% CO2.
Compound Screening: THP-1 cells were cultured in basal media with 1% FBS for 24 hours before the start of the assay. Each compound was dissolved in DMSO as a 10 mM stock and used to prepare compound source plates. Serial dilution (1:3, 10-point dose-response curves starting from 10 μM) and compound transfer was performed using the ECHO 550 (Labcyte, Sunnyvale, Calif.) into 384-well white low volume assay plates (Greiner Bio-One) with appropriate DMSO backfill for a final DMSO concentration of 0.1%. THP-1 cells were plated at 5000 cells/well in the 384-well plates and incubated at 37° C. for 2 h. 500 ng/mL of LPS was added after 2 hours and cells were incubated for another 22 hours at 37° C. Plates were spun in a centrifuge for 1 minute at […] and a mixture of anti-IL6 XL665, and anti-IL6 Cryptate diluted in reconstitution buffer (Cisbio Inc.) was added to each well. Following incubation for 3 hrs at room temperature, Homogeneous Time-Resolved Fluorescence (HTRF) was measured using the Envision (Perkin Elmer) at 665 nm and […]. The ratio of fluorescence at 665 nm to 620 nm was used as a readout for IL6 quantification. All samples were processed in duplicate. Readings were normalized to DMSO treated cells and normalized activities were utilized for EC50 calculations using the dose-response log (inhibitor) vs. response -variable slope (four parameters) nonlinear regression feature available in GraphPad Prism 5.0 (or Dotmatics). For EC50 of >10 μM, the percent inhibition at 10 μM is provided.

Structure (SMILES)	EC50 [1] [µM]	EC50 [2] [µM]	EC50 [4] [µM]	EC50 [3] [µM]	inhibition at 10 µM [2] [%]	inhibition at 10 µM ([3]; LL29 cells treated with TGF-β1, 4 days, at 10 μM, read-out: percent inhibition in brackets (given for EC50 >10 μM)) [%]
COc1cncc(-c2ccc3[nH]nc(-c4nc5c(-c6ccoc6)cncc5[nH]4)c3n2)c1 [Compound 648, 3-(7-(Furan-3-yl)-3H-imidazo[4,5-c]pyridin-2-yl)-5-(5-methoxylpyridin-3-yl)-1H-pyrazolo[4,3-b]pyridine]	0.849	1.77	7.04	0.404		
Cc1ccc(-c2cncc3[nH]c(-c4n[nH]c5ccc(-c6cncc(OC7CCCCC7)c6)nc45)nc23)s1 [Compound 691, 5-(5-(Cyclohexyloxy)pyridin-3-yl)-3-(7-(5-methylthiophen-2-yl)-3H-imidazo[4,5-c]pyridin-2-yl)-1H-pyrazolo[4,3-b]pyridine]	4.03	4.63	0.003	1.75		
Cc1ncc(-c2ccc3[nH]nc(-c4nc5c(-c6cc(F)cc(NCCN(C)C)c6)cncc5[nH]4)c3n2)n1C [Compound 737, N^1-(3-(2-(5-(1,2-Dimethyl-1H-imidazol-5-yl)-1H-pyrazolo[4,3-b]pyridin-3-yl)-3H-imidazo[4,5-c]pyridin-7-yl)-5-fluorophenyl)-N^2,N^2-dimethylethane-1,2-diamine]	3.85	> 10	1.17	8.95	46.5	
CN(C)CCNc1cc(F)cc(-c2cncc3[nH]c(-c4n[nH]c5ccc(-c6cnccn6)nc45)nc23)c1 [Compound 748, N^1-(3-Fluoro-5-(2-(5-(pyrazin-2-yl)-1H-pyrazolo[4,3-b]pyridin-3-yl)-3H-imidazo[4,5-c]pyridin-7-yl)phenyl)-N^2,N^2-dimethylethane-1,2-diamine]	3.95	3.74	4.23	> 10		41.3

Further lines, with some results ahead:

EC50 [1] [µM]	EC50 [2] [µM]	EC50 [4] [µM]	Structure (SMILES)	EC50 [3] [µM]	inhibition at 10 µM [2] [%]	inhibition at 10 µM ([3]; LL29 cells treated with TGF-β1, 4 days, at 10 μM, read-out: percent inhibition in brackets (given for EC50 >10 μM)) [%]
4.63	4.6	1.6	CN1CCN(c2cncc3[nH]c(-c4n[nH]c5ccc(-c6cncc(OCc7ccccc7)c6)nc45)nc23)CC1 [Compound 618, 5-(5-(Benzyloxy)pyridin-3-yl)-3-(7-(4-methylpiperazin-1-yl)-3H-imidazo[4,5-c]pyridin-2-yl)-1H-pyrazolo[4,3-b]pyridine]	1.9		
4.62	> 10	0.435	c1cc(-c2cncc3[nH]c(-c4n[nH]c5ccc(-c6cncc(OCCN7CCCC7)c6)nc45)nc23)co1 [Compound 646, 3-(7-(Furan-3-yl)-3H-imidazo[4,5-c]pyridin-2-yl)-5-(5-(2-(pyrrolidin-1-yl)ethoxy)pyridin-3-yl)-1H-pyrazolo[4,3-b]pyridine]	3.84	33.1	
2.72	3.3	1.6	CN(C)CCNc1cc(F)cc(-c2cncc3[nH]c(-c4n[nH]c5ccc(-c6cncc(OCc7ccccc7)c6)nc45)nc23)c1 [Compound 746, N^1-(3-(2-(5-(5-(Benzyloxy)pyridin-3-yl)-1H-pyrazolo[4,3-b]pyridin-3-yl)-3H-imidazo[4,5-c]pyridin-7-yl)-5-fluorophenyl)-N^2,N^2-dimethylethane-1,2-diamine]	2.93		
